Experimental data as given in ChEMBL document CHEMBL1134202, “Selectivity of inhibition of matrix metalloproteases MMP-3 and MMP-2 by succinyl hydroxamates and their carboxylic acid analogues is dependent on P3' group chirality” (Bioorg Med Chem Lett, 2001).

Key:
[1] = biological target: Matrix metalloproteinase-9 (Homo sapiens, UniProt P14780)
[2] = biological target: Matrix metalloproteinase-14 (Homo sapiens, UniProt P50281)
Stromelysin-1 = Stromelysin-1 (Homo sapiens, UniProt P08254)
Sequence of Stromelysin-1 (P08254 whole entry): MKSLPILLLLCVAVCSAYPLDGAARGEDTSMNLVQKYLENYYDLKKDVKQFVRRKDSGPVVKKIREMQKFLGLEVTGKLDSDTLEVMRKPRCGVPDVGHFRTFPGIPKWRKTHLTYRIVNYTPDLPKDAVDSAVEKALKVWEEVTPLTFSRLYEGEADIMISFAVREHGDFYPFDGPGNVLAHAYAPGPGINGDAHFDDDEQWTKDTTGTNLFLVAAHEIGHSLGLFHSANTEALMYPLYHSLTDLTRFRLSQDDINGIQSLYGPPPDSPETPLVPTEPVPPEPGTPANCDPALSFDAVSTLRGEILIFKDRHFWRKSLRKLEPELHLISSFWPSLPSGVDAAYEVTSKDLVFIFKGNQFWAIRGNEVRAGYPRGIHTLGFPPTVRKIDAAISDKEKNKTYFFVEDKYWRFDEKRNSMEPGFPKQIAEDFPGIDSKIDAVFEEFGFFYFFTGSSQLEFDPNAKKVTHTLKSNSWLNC

Sequence of Matrix metalloproteinase-9 (P14780 whole entry): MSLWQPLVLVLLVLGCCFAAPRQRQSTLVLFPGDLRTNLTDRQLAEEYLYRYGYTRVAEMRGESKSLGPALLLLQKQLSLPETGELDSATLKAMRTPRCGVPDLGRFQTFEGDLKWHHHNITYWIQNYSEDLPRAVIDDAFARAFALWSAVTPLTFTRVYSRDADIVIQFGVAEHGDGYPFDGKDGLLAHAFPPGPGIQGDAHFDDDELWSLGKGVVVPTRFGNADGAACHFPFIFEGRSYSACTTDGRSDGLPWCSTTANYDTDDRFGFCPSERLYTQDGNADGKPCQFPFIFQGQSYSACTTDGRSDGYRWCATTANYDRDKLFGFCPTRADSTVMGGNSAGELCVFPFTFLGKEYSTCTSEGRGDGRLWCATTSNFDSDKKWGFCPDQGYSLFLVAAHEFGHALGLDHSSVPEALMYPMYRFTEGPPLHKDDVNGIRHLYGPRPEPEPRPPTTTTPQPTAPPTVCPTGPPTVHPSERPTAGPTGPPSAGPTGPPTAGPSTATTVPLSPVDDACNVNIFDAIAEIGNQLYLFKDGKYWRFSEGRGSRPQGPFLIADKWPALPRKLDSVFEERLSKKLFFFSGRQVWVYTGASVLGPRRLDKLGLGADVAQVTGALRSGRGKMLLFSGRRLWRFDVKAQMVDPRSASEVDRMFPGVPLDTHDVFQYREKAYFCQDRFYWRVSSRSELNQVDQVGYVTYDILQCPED

Compound	IC50 [1]	IC50 [2]	Ki (Stromelysin-1)
CNC(=O)[C@H](Cc1ccccc1)NC(=O)[C@H](CC(C)C)[C@H](CSc1cccs1)C(=O)NO [BATIMASTAT]	0.67 nM	2.9 nM	
CNC(=O)[C@H](Cc1c[nH]c2ccccc12)NC(=O)[C@@H](CC(=O)NO)CC(C)C [ILOMASTAT]			26 nM
